Assay results from patent US9765074B2, “Inhibitors of the renal outer medullary potassium channel” (Merck Sharp & Dohme Corp., priority 2013, dated 2017).

The compounds below were run against T1, hROMK (hKir1.1) (Homo sapiens, UniProt P48048) (assay: Thallium Flux Assay (ROMK channel functional thallium flux, FLIPR-Tetra)). Conditions: HEK293 cells stably expressing hROMK (hKir1.1); 30 min compound incubation.
T1 construct: expressed in transfected cells
T1 sequence (P48048 1-391): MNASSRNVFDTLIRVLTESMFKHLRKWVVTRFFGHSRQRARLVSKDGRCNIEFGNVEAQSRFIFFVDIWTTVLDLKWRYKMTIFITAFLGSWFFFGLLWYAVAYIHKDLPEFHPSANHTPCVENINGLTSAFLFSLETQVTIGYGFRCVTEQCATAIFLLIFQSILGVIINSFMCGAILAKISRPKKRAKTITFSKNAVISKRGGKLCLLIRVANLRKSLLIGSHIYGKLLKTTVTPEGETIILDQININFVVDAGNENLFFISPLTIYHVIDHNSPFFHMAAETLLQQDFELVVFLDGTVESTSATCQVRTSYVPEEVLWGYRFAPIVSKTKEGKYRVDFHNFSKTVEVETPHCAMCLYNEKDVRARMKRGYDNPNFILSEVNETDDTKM
Assay type: cell-based
Experimental: The following Thallium Flux Assay was performed on each of the final product compounds in the Examples.
Cell Culture Conditions—HEK293 cells stably expressing hROMK (hKir1.1) were grown at 37° C. in a 10% CO2 humidified incubator in complete growth media: Dulbecco's Modified Eagle Medium supplemented with non-essential amino acids, Penicillin/Streptomycin/Glutamine, G418 and FBS. At >80% confluency, aspirate the media from the flask and rinse with 10 mL Calcium/Magnesium-free PBS. Add 5 mL of 1× trypsin (prepared in Ca/Mg Free PBS) to T-225 flask and return flask to 37° C./CO2 incubator for 2-3 minutes. To dislodge the cell, gently bang the side of the flask with your hand. Triturate the cells completely and then transfer the cells to 25 mL complete media. Centrifuge at 1,500 rpm for 6 min followed by resuspension in complete growth media and determine cell concentration. For typical re-seeding, 4E6 cells/T-225 flask will attain >80% confluency in 4 days. Under ideal growth conditions and appropriate tissue culture practices, this cell line is stable for 40-45 passages. FluxOR Kit Components (Invitrogen F10017) • FluxOR™ Reagent (Component A) • FluxOR™ Assay Buffer (Component B)—10× Concentrate • PowerLoad™ Concentrate (Component C)—100× Concentrate • Probenecid (Component D)—Lyophilized sample is kept at −20° C. Water soluble, 100× after solubilization in 1 mL water. Store at 4° C. • FluxOR™ Chloride-free Buffer (Component E)—5× Concentrate • Potassium sulfate (K2SO4) Concentrate (Component F)—125 mM in water. Store at 4° C. • Thallium sulfate (Tl2SO4) Concentrate (Component G)—50 mM in water. Store at 4° C. • DMSO (dimethyl sulfoxide, Component H)—1 mL (100%) Reagent Preparation: FluxOR Working Solutions • 1000× FluxOR™ Reagent: Reconstitute a vial of component A in 100 μl DMSO; Mix well; Store 10 μl aliquots at −20° C. • 1× FluxOR™ Assay Buffer: Dilute Component B 10-fold with water; Adjust pH to 7.4 with Hepes/NaOH; Filter and store at 4° C. • Probenecid/Assay Buffer: 100 mL of 1× FluxOR™ Assay Buffer; 1 mL of reconstituted component D; Store at 4° C. • Loading Buffer (per microplate): 10 μl 1000× FluxOR™ Reagent; 100 μl component C; 10 mL Probenecid/Assay Buffer • Compound Buffer (per microplate): 20 mL Probenecid/Assay Buffer; 0.3 mM ouabain (10 mM ouabain in water can be stored in amber bottle/aluminum foil at room temperature); Test compound • 1× FluxOR™ Chloride-Free Buffer: Prepare 1× working solution in water. Can be stored at room temperature • Stimulant Buffer (prepared at 5× final concentration in 1× FluxOR™ Chloride-Free Buffer): 7.5 mM Thallium sulfate and 0.75 mM Potassium sulfate (to give a final assay concentration of 3 mM Thallium/0.3 mM Potassium). Store at 4° C. when not in use. If kept sterile, this solution is good for months. Assay Protocol—The ROMK channel functional thallium flux assay is performed in 384 wells, using the FLIPR-Tetra instrument. HEK-hKir1.1 cells are seeded in Poly-D-Lysine microplates and kept in a 37° C.-10% CO2 incubator overnight. On the day of the experiment, the growth media is replaced with the FluxOR™ reagent loading buffer and incubated, protected from light, at ambient temperature (23-25° C.) for 90 min. The loading buffer is replaced with assay buffer±test compound followed by 30 min incubation at ambient temperature, where the Thallium/Potassium stimulant is added to the microplate. Step Protocol • 1. Seed HEK-hKir1.1 cells (50 μl at 20,000 cells/well) in 384-well PDL coated Microplates • 2. Allow cells to adhere overnight in humidified 37° C./10% CO2 incubator • 3. Completely remove cell growth media from microplate and replace with 25 μl loading buffer • 4. Incubate Microplate at room temperature, protected form light, for 90 min • 5. Remove loading buffer and replace with 25 μl 1× Assay Buffer±test compound. • 6. Incubate microplate at room temperature, protected from light, for 30 min • 7. At FLIPR-Tetra 384: Add stimulant (Thallium/Potassium) solution to microplate and monitor fluorescence. […]

IC50 [nM] | Structure (SMILES)
10 | CC1=C(N2CCC3(CCN(CCc4ccc(-n5cnnn5)nn4)CC3F)C2=O)COC1=O (single isomer, unassigned) [Example 265, 6-fluoro-2-(4-methyl-5-oxo-2,5-dihydrofuran-3-yl)-8-{2-[6-(1H-tetrazol-1-yl)pyridazin-3-yl]ethyl}-2,8-diazaspiro[4.5]decan-1-one]
50 | CC1=C(N2CCC3(CCN(C[C@H](F)c4cnc(-n5cnnn5)cn4)CC3)C2=O)COC1=O [Example 276, (S)-8-(2-(5-(1H-Tetrazol-1-yl)pyrazin-2-yl)-2-fluoroethyl)-2-(4-methyl-5-oxo-2,5-dihydrofuran-3-yl)-2,8-diazaspiro[4.5]decan-1-one]
40 | CC1=C(N2CCC3(CCN(C[C@H](O)c4cnc(-n5cnnn5)c(F)c4)CC3)C2=O)COC1=O [Example 26, 8-{(2R)-2-[5-fluoro-6-(1H-tetrazol-1-yl)pyridin-3-yl]-2-hydroxyethyl}-2-(4-methyl-5-oxo-2,5-dihydrofuran-3-yl)-1-oxo-2-aza-8-azoniaspiro[4.5]decane]
40 | CC1=C(N2C(=O)C3(CCN(C[C@H](O)c4ccc(-n5cnnn5)cc4C)CC3)CC2C)COC1=O (single isomer, unassigned) [Example 139]
40 | CC1CC2(CCN(CCc3cnc(-n4cnnn4)cn3)CC2)C(=O)N1C1=CC(=O)OC1 (single isomer, unassigned) [Example 242, 3-methyl-1-oxo-2-(5-oxo-2,5-dihydrofuran-3-yl)-8-{2-[5-(1H-tetrazol-1-yl)pyrazin-2-yl]ethyl}-2-aza-8-azoniaspiro[4.5]decane]
20 | CC1=CC2(CCN(C[C@H](O)c3ccc(-n4cnnn4)nc3)CC2)C(=O)N1C1=CC(=O)OC1 [Example 174, 8-{(2R)-2-hydroxy-2-[6-(1H-tetrazol-1-yl)pyridin-3-yl]ethyl}-3-methyl-2-(5-oxo-2,5-dihydrofuran-3-yl)-2,8-diazaspiro[4.5]dec-3-en-1-one]
120 | CC1=C(N2CC(O)C3(CCN(C[C@H](O)c4ccc(-n5cnnn5)nc4)CC3)C2=O)COC1=O (single isomer, unassigned) [Example 110]
60 | CC1=C(N2C(=O)C3(CCN(C[C@@H](O)c4ccc(-n5cnnn5)nc4C)CC3)CC2C)COC1=O (mixture of isomers) [Example 58, 8-{(2S)-2-hydroxy-2-[2-methyl-6-(1H-tetrazol-1-yl)pyridin-3-yl]ethyl}-3-methyl-2-(4-methyl-5-oxo-2,5-dihydrofuran-3-yl)-1-oxo-2-aza-8-azoniaspiro[4.5]decane]
30 | CC1=C(N2C(=O)C3(CCN(CCc4ccc(-n5cnnn5)nn4)CC3)CC2C)COC1=O (racemic) [Example 240, 3-methyl-2-(4-methyl-5-oxo-2,5-dihydrofuran-3-yl)-1-oxo-8-{2-[6-(1H-tetrazol-1-yl)pyridazin-3-yl]ethyl}-2-aza-8-azoniaspiro[4.5]decane]
10 | CC1=C(N2CCC3(CCN(C[C@@H](O)c4ccc(-n5cnnn5)cc4C)CC3)C2=O)COC1=O [Example 39, 8-{(2S)-2-hydroxy-2-[2-methyl-4-(1H-tetrazol-1-yl)phenyl]ethyl}-2-(4-methyl-5-oxo-2,5-dihydrofuran-3-yl)-1-oxo-2-aza-8-azoniaspiro[4.5]decane]
30 | CC1=C(N2CCC3(CCN(C[C@H](O)c4ncc(-n5cnnn5)cc4C)CC3)C2=O)COC1=O [Example 28, 8-{(2S)-2-hydroxy-2-[3-methyl-5-(1H-tetrazol-1-yl)pyridin-2-yl]ethyl}-2-(4-methyl-5-oxo-2,5-dihydrofuran-3-yl)-1-oxo-2-aza-8-azoniaspiro[4.5]decane]
440 | CC1=C(N2CCC3(CCN(C[C@H](O)c4cncc(-n5cnnn5)n4)CC3)C2=O)COC1=O [Example 75, 8-{(2S)-2-hydroxy-2-[6-(1H-tetrazol-1-yl)pyrazin-2-yl]ethyl}-2-(4-methyl-5-oxo-2,5-dihydrofuran-3-yl)-1-oxo-2-aza-8-azoniaspiro[4.5]decane]
30 | CC1=C(N2CCC3(CCN(C[C@@H](O)c4nnc(-n5cnnn5)c(C)c4C)CC3)C2=O)COC1=O [Example 70, 8-{(2R)-2-[4,5-dimethyl-6-(1H-tetrazol-1-yl)pyridazin-3-yl]-2-hydroxyethyl}-2-(4-methyl-5-oxo-2,5-dihydrofuran-3-yl)-1-oxo-2-aza-8-azoniaspiro[4.5]decane]
100 | C[C@@H]1CC2(CCN(C[C@H](O)c3cnc(-n4cnnn4)cn3)CC2)C(=O)N1C1=CC(=O)OC1 [Example 79, (3R)-8-{(2S)-2-hydroxy-2-[5-(1H-tetrazol-1-yl)pyrazin-2-yl]ethyl}-3-methyl-1-oxo-2-(5-oxo-2,5-dihydrofuran-3-yl)-2-aza-8-azoniaspiro[4.5]decane]
2000 | CC1CC2(CCN(C(C)(C)C(O)c3cnc(-n4cnnn4)cn3)CC2)C(=O)N1C1=CC(=O)OC1 (single isomer, unassigned) [Example 303, 8-(1-(5-(1H-tetrazol-1-yl)pyrazin-2-yl)-1-hydroxy-2-methylpropan-2-yl)-3-methyl-2-(5-oxo-2,5-dihydrofuran-3-yl)-2,8-diazaspiro[4.5]decan-1-one]
130 | C[C@@H]1CC2(CCN(C[C@@H](O)c3cnc(-n4cnnn4)cn3)CC2)C(=O)N1C1=CC(=O)OC1 [Example 80, (3R)-8-{(2R)-2-hydroxy-2-[5-(1H-tetrazol-1-yl)pyrazin-2-yl]ethyl}-3-methyl-1-oxo-2-(5-oxo-2,5-dihydrofuran-3-yl)-2-aza-8-azoniaspiro[4.5]decane]

Structure (SMILES) | IC50 [nM]
CO[C@@H](CN1C2CCC1CC1(CCN(C3=C(C)C(=O)OC3)C1=O)C2)c1ccc(-n2cnnn2)nc1 (stereo partly drawn) [Example 288, (1R,3R,5S)-S-((R)-2-(6-(1H-tetrazol-1-yl)pyridin-3-yl)-2-methoxyethyl)-1′-(4-methyl-5-oxo-2,5-dihydrofuran-3-yl)-8-azaspiro[bicyclo[3.2.1]octane-3,3′-pyrrolidin]-2′-one] | 30
CC1=C(N2CC(O)C3(CC4CCC(C3)N4C[C@H](O)c3ccc(-n4cnnn4)nc3)C2=O)COC1=O (single isomer, unassigned) [Example 106] | 60
COC1CN(C2=C(C)C(=O)OC2)C(=O)C12CC1CCC(C2)N1C[C@H](O)c1cnc(-n2cnnn2)cn1 (single isomer, unassigned) [Example 162] | 40
CC1=C(N2CC(O)C3(CC4CCC(C3)N4C[C@@H](O)c3ccc(-n4cnnn4)nc3)C2=O)COC1=O (single isomer, unassigned) [Example 105] | 130
CC1=C(N2C(=O)C3(CC2C)CC2CCC(C3)N2C[C@H](O)c2ccc(-n3cnnn3)nc2)COC1=O (single isomer, unassigned) [Example 133] | 10
